Structures are written as SMILES.

What is called IC50 is the concentration that inhibits the measured activity by half.

The target of the assay is DNA-PK (Homo sapiens (Human), UniProt P78527). Put plainly: DNA-PK/Biochemical Assay (FlashPlate kinase assay). Conditions: 5 μM ATP, 90 min, room temperature. The method, then: The kinase assay was carried out in streptavidin-coated […] microtitre FlashPlates®. To this end, 1.5 μg of the DNA-PK/protein complex and 100 ng of biotinylated substrate, such as, for example, […] biotin-NH2 (“biotin-DNA-PK peptide”), in a total volume of 36.5 μl (34.25 mM HEPES/KOH, 7.85 mM Tris-HCl, 68.5 mM KCl, 5 μM ATP, 6.85 mM MgCl2, 0.5 mM EDTA, 0.14 mM EGTA, 0.69 mM DTT, pH 7.4), were incubated at room temperature for 90 min with 500 ng of DNA from calf thymus, 0.1 μCi of 33P-ATP and 1.8% of DMSO per well with or without the test compound. The reaction was stopped using 50 μl/well of 200 mM EDTA. After incubation for a further 30 min at room temperature, the liquid was removed. Each well was washed three times with 100 μl of 0.9% sodium chloride solution. A non-specific reaction (blank value) was determined using 10 μM of a proprietary kinase inhibitor. The radioactivity measurement was carried out by means of a TopCount. IC50 values were calculated in RS1. • Literature: Kashishian et al. (2003) Molecular Cancer Therapeutics 1257.

`COc1cc2ncc3[nH]nc(-c4ccc(C#N)cc4)c3c2cc1OC` [Compound 1, 4-(7,8-Dimethoxy-3H-pyrazolo[3,4-c]quinolin-1-yl)benzonitrile]: the IC50 was under 100 nM.

Turning to `COc1cc2ncc3c(c(-c4ccc(C#N)cc4)nn3C)c2cc1OC` [Compound 2, 4-(7,8-Dimethoxy-3-methyl-3H-pyrazolo-[3,4-c]quinolin-1-yl)-benzonitrile], the IC50 is under 100 nM.

`COc1cc2ncc3c(c(-c4ccc(C#N)c(Br)c4)nn3C)c2cc1OC` [Compound 3] showed an IC50 of under 100 nM.

For `COc1cc2ncc3c(c(-c4ccc(C#N)cc4)nn3C)c2cc1O` [Compound 5, 4-(8-Hydroxy-7-methoxy-3-methyl-3H-pyrazolo-[3,4-c]quinolin-1-yl)-benzonitrile], the IC50 was under 100 nM.

In turn, `COc1cc2ncc3c(c(-c4ccc(C#N)cc4F)nn3C)c2cc1O` [Compound 6, 3-Fluoro-4-(8-hydroxy-7-methoxy-3-methyl-3H-pyrazolo[3,4-c]quinolin-1-yl)benzonitrile] gave an IC50 of under 100 nM.

For the molecule `COc1cc2ncc3[nH]nc(-c4ccc(C#N)c(Cl)c4)c3c2cc1OC` [Compound 7, 2-Chloro-4-(7,8-dimethoxy-3H-pyrazolo-[3,4-c]quinolin-1-yl)-benzonitrile], the IC50 is under 100 nM.

`COc1cc2ncc3c(c(-c4ccc(C#N)cc4)nn3C)c2cc1O[C@@H](C(N)=O)c1ccc(F)cc1` [Compound 9, (R)-2-[1-(4-Cyanophenyl)-7-methoxy-3-methyl-3H-pyrazolo[3,4-c]quinolin-8-yloxy]-2-(4-fluorophenyl)-acetamide] registered an IC50 of under 100 nM.

`COc1cc2ncc3c(c(-c4ccc(C#N)cc4)nn3C)c2cc1O[C@H](C(N)=O)c1ccc(F)cc1` [Compound 10, (S)-2-[1-(4-Cyanophenyl)-7-methoxy-3-methyl-3H-pyrazolo[3,4-c]quinolin-8-yloxy]-2-(4-fluorophenyl)-acetamide] came in with a 50% inhibitory concentration (IC50) of under 100 nM.

`COc1cc2ncc3c(c(-c4ccc(C#N)cc4)nn3C)c2cc1OCc1ccncc1` [Compound 11, 4-[7-Methoxy-3-methyl-8-(pyridin-4-ylmethoxy)-3H-pyrazolo[3,4-c]quinolin-1-yl]-benzonitrile] displayed an IC50 of under 100 nM.

For the molecule `COc1cc2ncc3c(c(-c4ccc(C#N)cc4)nn3C)c2cc1OCc1cccnc1` [Compound 12, 4-[7-Methoxy-3-methyl-8-(pyridin-3-ylmethoxy)-3H-pyrazolo[3,4-c]quinolin-1-yl]-benzonitrile], the IC50 is under 100 nM.

`COc1cc2ncc3c(c(-c4ccc(C#N)cc4)nn3C)c2cc1OCc1ccccn1` [Compound 13, 4-[7-Methoxy-3-methyl-8-(pyridin-2-ylmethoxy)-3H-pyrazolo[3,4-c]quinolin-1-yl]-benzonitrile] returned a half-inhibitory concentration (IC50) of over 500 nM.

For `COc1cc2ncc3c(c(-c4ccc(C#N)cc4)nn3C)c2cc1OCc1ccccc1C#N` [Compound 14, 4-[8-(2-Cyanobenzyloxy)-7-methoxy-3-methyl-8-3H-pyrazolo[3,4-c]quinolin-1-yl]-benzonitrile], the IC50 was 100 to 500 nM.

On to `COc1cc2ncc3c(c(-c4ccc(C#N)cc4)nn3C)c2cc1OCc1ccc(F)cc1` [Compound 15, 4-[8-(4-Fluorobenzyloxy)-7-methoxy-3-methyl-3H-pyrazolo[3,4-c]quinolin-1-yl]-benzonitrile], for which the IC50 is under 100 nM.

With `COc1cc2ncc3c(c(-c4ccc(C#N)cc4)nn3C)c2cc1OC(F)F` [Compound 16, 4-(8-Difluoromethoxy-7-methoxy-3-methyl-3H-pyrazolo[3,4-c]quinolin-1-yl)-benzonitrile], the IC50 was under 100 nM.

Molecule `COc1cc2ncc3c(c(-c4ccc(C#N)cc4)nn3C)c2cc1OC(F)(F)c1ccccc1` [Compound 17, 4-[8-(Difluorophenyl-methoxy)-7-methoxy-3-methyl-3H-pyrazolo[3,4-c]-quinolin-1-yl]benzonitrile] showed an IC50 of 100 to 500 nM.

As to `COC(=O)C(Oc1cc2c(cc1OC)ncc1c2c(-c2ccc(C#N)cc2)nn1C)c1ccc(F)cc1` (stereo not drawn) [Compound 18, Methyl 1-(4-cyanophenyl)-7-methoxy-3-methyl-3H-pyrazolo[3,4-c]quinolin-8-yloxy]-(4-fluorophenyl)-acetate], the IC50 was in the range of 100 to 500 nM.

On to `COc1cc2ncc3c(c(-c4ccc(C#N)cc4)nn3C)c2cc1OC(C(=O)O)c1ccc(F)cc1` (stereo not drawn) [Compound 19, [1-(4-Cyanophenyl)-7-methoxy-3-methyl-3H-pyrazolo[3,4-c]quinolin-8-yloxy]-(4-fluorophenyl)acetic acid], for which the IC50 was under 100 nM.

Consider `COc1cc2ncc3c(c(-c4ccc(C#N)cc4)nn3C)c2cc1OC(C(=O)O)c1ccccc1` (stereo not drawn) [Compound 20, [1-(4-Cyanophenyl)-7-methoxy-3-methyl-3H-pyrazolo[3,4-c]quinolin-8-yloxy]phenylacetic acid], for which the IC50 was under 100 nM.

Consider `COc1cc2ncc3c(c(-c4ccc(C#N)cc4)nn3C)c2cc1OC(C(=O)O)c1cccs1` (stereo not drawn) [Compound 21, [1-(4-Cyanophenyl)-7-methoxy-3-methyl-3H-pyrazolo[3,4-c]quinolin-8-yloxy]thiophen-2-ylacetic acid], for which the IC50 was under 100 nM.

For the molecule `COc1cc2ncc3c(c(-c4ccc(C#N)cc4)nn3C)c2cc1OC(C)(C(=O)O)c1ccccc1` (stereo not drawn) [Compound 22, 2-[1-(4-Cyanophenyl)-7-methoxy-3-methyl-3H-pyrazolo[3,4-c]quinolin-8-yloxy]-2-phenylpropanoic acid], the half-inhibitory concentration (IC50) is over 500 nM.

`COc1cc2ncc3c(c(-c4ccc(C#N)cc4F)nn3C)c2cc1OC(C(N)=O)c1ccc(F)cc1` (stereo not drawn) [Compound 23, 2-[1-(4-Cyano-2-fluoro-phenyl)-7-methoxy-3-methyl-3H-pyrazolo[3,4-c]quinolin-8-yloxy]-2-(4-fluorophenyl)-acetamide]: the IC50 is under 100 nM.

As for `COc1cc2ncc3c(c(-c4ccc(C#N)cc4)nn3C)c2cc1OS(=O)(=O)c1ccc(C)cc1` [Compound 24, 1-(4-Cyanophenyl)-7-methoxy-3-methyl-3H-pyrazolo[3,4-c]quinolin-8-yl toluene-4-sulfonate], the IC50 fell in the range of 100 to 500 nM.

`COc1cc2ncc3c(c(-c4ccc(C#N)cc4)nn3C)c2cc1OP(=O)(O)c1ccccc1` [Compound 25, 1-(4-Cyanophenyl)-7-methoxy-3-methyl-3H-pyrazolo[3,4-c]quinolin-8-yl phenylphosphonate] registered an IC50 of 100 to 500 nM.

`COc1cc2c(cc1OC(F)F)ncc1c2c(-c2ccc(C#N)cc2)nn1C` [Compound 26, 4-(7-Difluoromethoxy-8-methoxy-3-methyl-3H-pyrazolo[3,4-c]quinolin-1-yl)-benzonitrile] had an IC50 of over 500 nM.

For the molecule `COc1cc2ncc3c(c(-c4ccc(C#N)cc4)nn3C)c2cc1OCc1ccc(CO)cc1` [Compound 27, 4-[8-(4-Hydroxymethyl-benzyloxy)-7-methoxy-3-methyl-3H-pyrazolo[3,4-c]-quinolin-1-yl]benzonitrile], the half-inhibitory concentration (IC50) was under 100 nM.

With `COc1cc2ncc3c(c(-c4ccc(C#N)cc4)nn3C)c2cc1OCc1cccc(CN2CCOCC2)c1` [Compound 28, 4-[7-Methoxy-3-methyl-8-(3-morpholin-4-ylmethyl-benzyloxy)-3H-pyrazolo-[3,4-c]quinolin-1-yl]-benzonitrile], the concentration for half-maximal inhibition (IC50) lay in the range of 100 to 500 nM.

`COc1cc2ncc3c(c(-c4ccc(C#N)cc4)nn3C)c2cc1OCc1ccc(-n2cccn2)nc1` [Compound 29, 4-[7-Methoxy-3-methyl-8-(6-pyrazol-1-ylpyridin-3-ylmethoxy)-3H-pyrazolo-[3,4-c]quinolin-1-yl]-benzonitrile]: the IC50 is over 500 nM.

(Values after US8802712B2, “Pyrazoloquinolines” (Merck Patent GmbH, priority 2010, dated 2014).)
